From patent US10131652B2, “Pyrimidinyloxy benzene derivatives as herbicides” (E. I. DU PONT DE NEMOURS AND COMPANY, priority 2014, dated 2018)
Where two headings read alike, the source gives them in different places.

Columns and labels:
Experiment in all cases: Test F pre-/postemergence plant response
Assay type in all cases: in vivo
[1] = test system: arrowleaf sida (Sida rhombifolia); settings: Sida rhombifolia, scale 0 to 100, read-out: Plant response rating, Arrowleaf Sida
Method in brief: (§1)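 Plant response is a visual score from 0, meaning no effect, to 100, meaning complete control, assigned by comparison with untreated plants. Ratings were made 14 to 21 days after preemergence application to seeded silt loam or postemergence application to plants at the 1- to 4-leaf stage.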

[2] = test system: corn (Zea mays); settings: Zea mays, scale 0 to 100
Method in brief: as §1

[3] = test system: fall panicum (Panicum dichotomiflorum); settings: Panicum dichotomiflorum, scale 0 to 100, read-out: Plant response rating, Panicum, Fall
Method in brief: as §1

[4] = test system: field bindweed (Convolvulus arvensis); settings: Convolvulus arvensis, scale 0 to 100, read-out: Plant response rating, Field Bindweed
Method in brief: as §1

[5] = test system: goosegrass (Eleusine indica); settings: Eleusine indica, pre-emergence, scale 0 to 100, read-out: Plant response rating, Goosegrass
Method in brief: as §1

[6] = test system: green foxtail (Setaria viridis); settings: Setaria viridis, pre-emergence, scale 0 to 100, read-out: Plant response rating, Foxtail, Green
Method in brief: as §1

[7] = test system: hairy beggarticks (Bidens pilosa); settings: Bidens pilosa, scale 0 to 100, read-out: Plant response rating, Beggarticks
Method in brief: as §1

[8] = test system: johnsongrass (Sorghum halepense); settings: Sorghum halepense, pre-emergence, scale 0 to 100, read-out: Plant response rating, Johnsongrass
Method in brief: as §1

[9] = test system: kochia (Kochia scoparia); settings: Bassia scoparia, pre-emergence, scale 0 to 100, read-out: Plant response rating, Kochia
Method in brief: as §1

[10] = test system: nightshade (eastern black nightshade, Solanum ptycanthum); settings: Solanum, pre-emergence, scale 0 to 100, read-out: Plant response rating, Nightshade
Method in brief: as §1

[11] = test system: palmer pigweed (Amaranthus palmeri); settings: Amaranthus palmeri, scale 0 to 100, read-out: Plant response rating, Pigweed, Palmer
Method in brief: as §1

[12] = test system: ragweed (common ragweed, Ambrosia elatior); settings: Ambrosia artemisiifolia, pre-emergence, scale 0 to 100, read-out: Plant response rating, Ragweed
Method in brief: as §1

[13] = test system: velvetleaf (Abutilon theophrasti); settings: Abutilon theophrasti, pre-emergence, scale 0 to 100, read-out: Plant response rating, Velvetleaf
Method in brief: as §1

[14] = test system: waterhemp (common waterhemp, Amaranthus rudis); settings: Amaranthus tuberculatus, scale 0 to 100, read-out: Plant response rating, Waterhemp
Method in brief: as §1

[15] = test system: wild poinsettia (Euphorbia heterophylla); settings: Euphorbia heterophylla, scale 0 to 100, read-out: Plant response rating, Poinsettia, Wild
Method in brief: as §1

[16] = test system: yellow nutsedge (Cyperus esculentus); settings: Cyperus, pre-emergence, scale 0 to 100, read-out: Plant response rating, Nutsedge, Yellow
Method in brief: as §1

[17] = post-emergence, 8 g ai/ha Postemergence
[18] = post-emergence, 16 g ai/ha Postemergence
[19] = post-emergence, 31 g ai/ha Postemergence
[20] = post-emergence, 62 g ai/ha Postemergence
[21] = post-emergence, 125 g ai/ha Postemergence
[22] = pre-emergence, 8 g ai/ha Preemergence
[23] = pre-emergence, 16 g ai/ha Preemergence
[24] = pre-emergence, 31 g ai/ha Preemergence
[25] = pre-emergence, 62 g ai/ha Preemergence
[26] = pre-emergence, 125 g ai/ha Preemergence

## FC(F)c1cc(-c2ccccc2Oc2ncc(Br)cn2)no1 [Compound 62, 5-bromo-2-[2-[5-(difluoromethyl)-3-isoxazolyl]phenoxy]pyrimidine]
[1]; [17]
  pest or weed control at 8 g/ha: 65%
[1]; [18]
  pest or weed control at 16 g/ha: 80%
[1]; [19]
  pest or weed control at 31 g/ha: 95%
[1]; [20]
  pest or weed control at 62 g/ha: 98%
[1]; [21]
  pest or weed control at 125 g/ha: 98%
[1]; [22]
  pest or weed control at 8 g/ha: 0%
[1]; [23]
  pest or weed control at 16 g/ha: 20%
[1]; [24]
  pest or weed control at 31 g/ha: 70%
[1]; [25]
  pest or weed control at 62 g/ha: 95%
[1]; [26]
  pest or weed control at 125 g/ha: 100%
[2]; [17]
  Corn plant response rating (crop injury, 0 = no effect, 100 = complete kill) at 8 g/ha: 0%
[2]; [18]
  Corn plant response rating (crop injury, 0 = no effect, 100 = complete kill) at 16 g/ha: 0%
[2]; [19]
  Corn plant response rating (crop injury, 0 = no effect, 100 = complete kill) at 31 g/ha: 0%
[2]; [20]
  Corn plant response rating (crop injury, 0 = no effect, 100 = complete kill) at 62 g/ha: 5%
[2]; [21]
  Corn plant response rating (crop injury, 0 = no effect, 100 = complete kill) at 125 g/ha: 10%
[2]; [22]
  Corn plant response rating (crop injury, 0 = no effect, 100 = complete kill) at 8 g/ha: 0%
[2]; [23]
  Corn plant response rating (crop injury, 0 = no effect, 100 = complete kill) at 16 g/ha: 0%
[2]; [24]
  Corn plant response rating (crop injury, 0 = no effect, 100 = complete kill) at 31 g/ha: 0%
[2]; [25]
  Corn plant response rating (crop injury, 0 = no effect, 100 = complete kill) at 62 g/ha: 0%
[2]; [26]
  Corn plant response rating (crop injury, 0 = no effect, 100 = complete kill) at 125 g/ha: 0%
[3]; [17]
  pest or weed control at 8 g/ha: 0%
[3]; [18]
  pest or weed control at 16 g/ha: 0%
[3]; [19]
  pest or weed control at 31 g/ha: 5%
[3]; [20]
  pest or weed control at 62 g/ha: 10%
[3]; [21]
  pest or weed control at 125 g/ha: 60%
[3]; [22]
  pest or weed control at 8 g/ha: 0%
[3]; [23]
  pest or weed control at 16 g/ha: 0%
[3]; [24]
  pest or weed control at 31 g/ha: 0%
[3]; [26]
  pest or weed control at 125 g/ha: 100%
[3]; pre-emergence, Preemergence
  pest or weed control at 62 g/ha: 95%
[4]; [17]
  pest or weed control at 8 g/ha: 40%
[4]; [18]
  pest or weed control at 16 g/ha: 40%
[4]; [19]
  pest or weed control at 31 g/ha: 35%
[4]; [20]
  pest or weed control at 62 g/ha: 50%
[4]; [21]
  pest or weed control at 125 g/ha: 75%
[4]; [22]
  pest or weed control at 8 g/ha: 0%
[4]; [23]
  pest or weed control at 16 g/ha: 0%
[4]; [24]
  pest or weed control at 31 g/ha: 0%
[4]; [25]
  pest or weed control at 62 g/ha: 0%
[4]; [26]
  pest or weed control at 125 g/ha: 0%
[5]; 8 g ai/ha Preemergence
  pest or weed control at 8 g/ha: 0%
[5]; 16 g ai/ha Preemergence
  pest or weed control at 16 g/ha: 0%
[5]; 31 g ai/ha Preemergence
  pest or weed control at 31 g/ha: 0%
[5]; 125 g ai/ha Preemergence
  pest or weed control at 125 g/ha: 75%
[5]; Preemergence
  pest or weed control at 62 g/ha: 5%
[6]; 8 g ai/ha Preemergence
  pest or weed control at 8 g/ha: 0%
[6]; 16 g ai/ha, Preemergence
  pest or weed control at 16 g/ha: 0%
[6]; 31 g ai/ha, Preemergence
  pest or weed control at 31 g/ha: 10%
[6]; 125 g ai/ha, Preemergence
  pest or weed control at 125 g/ha: 90%
[6]; Preemergence
  pest or weed control at 62 g/ha: 40%
[7]; [17]
  pest or weed control at 8 g/ha: 5%
[7]; [18]
  pest or weed control at 16 g/ha: 5%
[7]; [19]
  pest or weed control at 31 g/ha: 10%
[7]; [20]
  pest or weed control at 62 g/ha: 50%
[7]; [21]
  pest or weed control at 125 g/ha: 80%
[7]; [22]
  pest or weed control at 8 g/ha: 0%
[7]; [23]
  pest or weed control at 16 g/ha: 0%
[7]; [24]
  pest or weed control at 31 g/ha: 0%
[7]; [25]
  pest or weed control at 62 g/ha: 0%
[7]; [26]
  pest or weed control at 125 g/ha: 0%
[8]; 8 g ai/ha Preemergence
  pest or weed control at 8 g/ha: 0%
[8]; 16 g ai/ha Preemergence
  pest or weed control at 16 g/ha: 0%
[8]; 31 g ai/ha Preemergence
  pest or weed control at 31 g/ha: 20%
[8]; 125 g ai/ha Preemergence
  pest or weed control at 125 g/ha: 40%
[8]; Preemergence
  pest or weed control at 62 g/ha: 35%
[9]; 8 g ai/ha Preemergence
  pest or weed control at 8 g/ha: 10%
[9]; 31 g ai/ha, Preemergence
  pest or weed control at 31 g/ha: 20%
[9]; 125 g ai/ha, Preemergence
  pest or weed control at 125 g/ha: 95%
[9]; Preemergence
  pest or weed control at 62 g/ha: 35%
[10]; 8 g ai/ha Preemergence
  pest or weed control at 8 g/ha: 0%
[10]; 16 g ai/ha Preemergence
  pest or weed control at 16 g/ha: 0%
[10]; 31 g ai/ha Preemergence
  pest or weed control at 31 g/ha: 70%
[10]; 125 g ai/ha Preemergence
  pest or weed control at 125 g/ha: 100%
[10]; Preemergence
  pest or weed control at 62 g/ha: 98%
[11]; [17]
  pest or weed control at 8 g/ha: 90%
[11]; [18]
  pest or weed control at 16 g/ha: 70%
[11]; [19]
  pest or weed control at 31 g/ha: 95%
[11]; [20]
  pest or weed control at 62 g/ha: 100%
[11]; [21]
  pest or weed control at 125 g/ha: 100%
[11]; [22]
  pest or weed control at 8 g/ha: 10%
[11]; [23]
  pest or weed control at 16 g/ha: 80%
[11]; [24]
  pest or weed control at 31 g/ha: 75%
[11]; [26]
  pest or weed control at 125 g/ha: 100%
[11]; pre-emergence, Preemergence
  pest or weed control at 62 g/ha: 100%
[12]; 8 g ai/ha Preemergence
  pest or weed control at 8 g/ha: 0%
[12]; 16 g ai/ha Preemergence
  pest or weed control at 16 g/ha: 20%
[12]; 31 g ai/ha Preemergence
  pest or weed control at 31 g/ha: 25%
[12]; 125 g ai/ha Preemergence
  pest or weed control at 125 g/ha: 35%
[12]; Preemergence
  pest or weed control at 62 g/ha: 40%
[13]; 8 g ai/ha Preemergence
  pest or weed control at 8 g/ha: 0%
[13]; 16 g ai/ha Preemergence
  pest or weed control at 16 g/ha: 35%
[13]; 31 g ai/ha Preemergence
  pest or weed control at 31 g/ha: 75%
[13]; 125 g ai/ha Preemergence
  pest or weed control at 125 g/ha: 100%
[13]; Preemergence
  pest or weed control at 62 g/ha: 100%
[14]; [17]
  pest or weed control at 8 g/ha: 80%
[14]; [18]
  pest or weed control at 16 g/ha: 90%
[14]; [19]
  pest or weed control at 31 g/ha: 100%
[14]; [20]
  pest or weed control at 62 g/ha: 100%
[14]; [21]
  pest or weed control at 125 g/ha: 100%
[14]; [22]
  pest or weed control at 8 g/ha: 80%
[14]; [23]
  pest or weed control at 16 g/ha: 85%
[14]; [24]
  pest or weed control at 31 g/ha: 98%
[14]; [26]
  pest or weed control at 125 g/ha: 100%
[14]; pre-emergence, Preemergence
  pest or weed control at 62 g/ha: 100%
[15]; [17]
  pest or weed control at 8 g/ha: 25%
[15]; [18]
  pest or weed control at 16 g/ha: 35%
[15]; [19]
  pest or weed control at 31 g/ha: 40%
[15]; [20]
  pest or weed control at 62 g/ha: 50%
[15]; [21]
  pest or weed control at 125 g/ha: 50%
[15]; [22]
  pest or weed control at 8 g/ha: 0%
[15]; [23]
  pest or weed control at 16 g/ha: 0%
[15]; [24]
  pest or weed control at 31 g/ha: 30%
[15]; [26]
  pest or weed control at 125 g/ha: 35%
[15]; pre-emergence, Preemergence
  pest or weed control at 62 g/ha: 25%
[16]; 8 g ai/ha Preemergence
  pest or weed control at 8 g/ha: 0%
[16]; 16 g ai/ha Preemergence
  pest or weed control at 16 g/ha: 0%
[16]; 31 g ai/ha Preemergence
  pest or weed control at 31 g/ha: 0%
[16]; 125 g ai/ha Preemergence
  pest or weed control at 125 g/ha: 0%
[16]; Preemergence
  pest or weed control at 62 g/ha: 0%
